Reference: US20230190954A1, “COMPOSITION AND METHODS FOR TREATMENT OF PRIMARY CILIARY DYSKINESIA” (TRANSLATE BIO, INC., priority 2020, published 2023)

Assays:
mouse lungs [1] = assay: In vivo screen of cationic lipids: FFL mRNA-LNP pulmonary delivery, IVIS luciferase imaging; parameters: species or system male CD1 mice; details: for potency as determined by the average radiance detected in mouse lungs: FFL mRNA-LNP, single intratracheal administration, about 5 hours post-dose; for selection based on performance in the in vivo screen: about 150 cationic lipids tested; for suitability/performance in liposomes administered through pulmonary delivery via nebulization: mouse, in vivo
Experimental: In this example, various cationic lipids were tested for in vivo efficacy when mRNA encapsulated in lipid nanoparticles (mRNA-LNP) were administered to mice by pulmonary delivery. The cationic lipids were tested for both potency, as determined by levels of protein production, and tolerability, as determined by side effects associated with clearance and metabolism.
About 150 cationic lipids were tested. (FIG. 9). Each cationic lipid was used in preparing lipid nanoparticles encapsulating mRNA encoding firefly luciferase protein (FFL mRNA) according to methods known in the art. For example, suitable methods for mRNA encapsulation include methods described in International Publication Nos. WO2016/004318 and WO 2018/089801, which is hereby incorporated by reference in its entirety. The tested lipid nanoparticles comprised a lipid component consisting of a cationic lipid, a non-cationic lipid (DOPE), a PEG-modified lipid (DMG-PEG2K), and optionally cholesterol.
Lipid nanoparticle formulations comprising FFL mRNA were administered to male CD1 mice by a single intratracheal administration via nebulization using a Microsprayer®. At approximately 5 hours post-dose, the animals were dosed with luciferin by intraperitoneal injection and all animals were imaged using an IVIS imaging system to measure luciferase production in the lung. […] Some cationic lipids remarkably had greater than 50-fold increase in pulmonary protein expression as compared to other cationic lipids.

mouse lungs [2] = assay: as above; parameters: species or system male CD1 mice; details: pulmonary-delivered (e.g., nebulized) FFL mRNA in LNP with this cationic lipid, threshold lines in FIG. 9

| SMILES | potency as determined by the average radiance detected in mouse lungs (mouse lungs [1]) | selection based on performance in the in vivo screen (mouse lungs [1]) | suitability/performance in liposomes administered through pulmonary delivery via nebulization (mouse lungs [1]) | historical radiance/expression of pulmonary-delivered FFL mRNA-LNP (mouse lungs [2]) |
| --- | --- | --- | --- | --- |
| CCCCC/C=C\C/C=C\CCCCCCCC(=O)OCC(COC(=O)CCCCCCC/C=C\C/C=C\CCCCC)(COC(=O)CCCCCCC/C=C\C/C=C\CCCCC)NCCS(=O)(=O)NCCN(C)C [GL-TES-SA-DME-E18-2, 2-((2-(N-(2-(dimethylamino)ethyl)sulfamoyl)ethyl)amino)-2-((((9Z,12Z)-octadeca-9,12-dienoyl)oxy)methyl)propane-1,3-diyl (9Z,9′Z,12Z,12′Z)-bis(octadeca-9,12-dienoate)] | particularly high potency | selected for further investigation | performed particularly well | – |
| CCCCC/C=C\C/C=C\CCCCCCCC(=O)OCC(COC(=O)CCCCCCC/C=C\C/C=C\CCCCC)(COC(=O)CCCCCCC/C=C\C/C=C\CCCCC)NCCS(=O)(=O)NCCCN(C)C [GL-TES-SA-DMP-E18-2] | particularly high potency | selected for further investigation | performed particularly well | – |
| CCCCCCCCC(O)CN(CCCC(=O)OCCN1CC(C)N(CCOC(=O)CCCN(CC(O)CCCCCCCC)CC(O)CCCCCCCC)CC1C)CC(O)CCCCCCCC (stereo not shown) [HEP-E3-E10] | particularly high potency | selected for further investigation | performed particularly well | – |
| CCCCCCCCC(O)CN(CCCCC(=O)OCCN1CC(C)N(CCOC(=O)CCCCN(CC(O)CCCCCCCC)CC(O)CCCCCCCC)CC1C)CC(O)CCCCCCCC (stereo not shown) [HEP-E4-E10] | particularly high potency | selected for further investigation | performed particularly well | – |
| CC(C)CCCC(C)C1CCC2C3CC=C4CC(SSCCNC(=N)N)CCC4(C)C3CCC12C (stereo not shown) [HGT4002] | – | selected for further investigation | – | – |
| CC(C)CCCC(C)[C@H]1CCC2C3CC=C4C[C@@H](OC(=O)CCc5c[nH]cn5)CC[C@]4(C)C3CC[C@@]21C (stereo partly shown) [ICE, imidazole cholesterol ester] | – | – | – | around 10^4 p/s/cm^2sr |
| CCCCCCCCCCCCC(O)CN(CCCC(=O)Oc1c(OC)cc(C(=O)OCCCN(C)C)cc1OC)CC(O)CCCCCCCCCCCC (stereo not shown) [SY-3-E14-DMAPr] | – | selected for further investigation | – | – |
| CCCCCCCCOC(=O)CC(CC(=O)OCCCCCCCC)(OC(=O)CCN(C)C)C(=O)OCCCCCCCC [TL1-01D-DMA, trioctyl 2-((3-(dimethylamino)propanoyl)oxy)propane-1,2,3-tricarboxylate] | particularly high potency | selected for further investigation | performed particularly well | – |
| CCCCCCCCCCCCCCOC(=O)CC(CC(=O)OCCCCCCCCCCCCCC)(OC(=O)CCN(C)C)C(=O)OCCCCCCCCCCCCCC [TL1-04D-DMA] | particularly high potency | selected for further investigation | performed particularly well | – |
| CCCCCCCC(=O)OCCCCCCCCCOC(=O)CC(CC(=O)OCCCCCCCCCOC(=O)CCCCCCC)(OC(=O)CCN(C)C)C(=O)OCCCCCCCCCOC(=O)CCCCCCC [TL1-10D-DMA] | – | selected for further investigation | – | – |
